According to ChEMBL document CHEMBL6103588, “Promising thiazolidinedione-thiazole based multi-target and neuroprotective hybrids for Alzheimer's disease: Design, synthesis, in-vitro, in-vivo and in-silico studies” (Eur J Med Chem, 2025):

Experiments:
Mus musculus [1] = assay: Antioxidant activity against scopolamine-induced Albino mouse assessed as increase in GSH-Px level in brain at 5 mg/kg measured after 24 hrs; type: functional
[2] = Acute toxicity in male Swiss albino mouse assessed as mortality treated po single dose via gavage measured after 48 hrs by up-and-down method; type: organism-based; details: in vivo
Acetylcholinesterase = Acetylcholinesterase (Electrophorus electricus, UniProt O42275); assay: Inhibition of Electric eel AChE using acetylthiocholine iodide as substrate pre-incubated for 10 mins followed by substrate addition and measured after 15 mins by DTNB reagent based Ellman's method; details: read-out: IC50
[3] = target: T1, Amine oxidase [flavin-containing] A (Homo sapiens, UniProt P21397); assay: Inhibition of human MAO-A using tyramine/benzylamine as substrate measured after 30 mins by fluorometric assay; details: read-out: IC50
T1 sequence (P21397 whole entry): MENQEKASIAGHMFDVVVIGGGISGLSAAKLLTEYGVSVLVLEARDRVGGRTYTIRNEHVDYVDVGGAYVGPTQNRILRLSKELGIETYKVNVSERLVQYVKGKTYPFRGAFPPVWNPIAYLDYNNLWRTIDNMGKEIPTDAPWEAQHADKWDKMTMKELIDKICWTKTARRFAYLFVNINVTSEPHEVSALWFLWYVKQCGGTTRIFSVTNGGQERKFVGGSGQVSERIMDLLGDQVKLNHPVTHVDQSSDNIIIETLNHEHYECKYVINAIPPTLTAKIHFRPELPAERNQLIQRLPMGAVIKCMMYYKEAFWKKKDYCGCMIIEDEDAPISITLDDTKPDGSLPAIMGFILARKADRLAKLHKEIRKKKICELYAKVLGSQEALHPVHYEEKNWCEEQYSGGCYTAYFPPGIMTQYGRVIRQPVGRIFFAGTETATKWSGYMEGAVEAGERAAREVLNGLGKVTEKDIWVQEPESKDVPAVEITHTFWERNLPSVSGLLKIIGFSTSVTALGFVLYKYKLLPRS

[4] = target: T2, Prostaglandin G/H synthase 2 (Homo sapiens, UniProt P35354)
T2 sequence (P35354 whole entry): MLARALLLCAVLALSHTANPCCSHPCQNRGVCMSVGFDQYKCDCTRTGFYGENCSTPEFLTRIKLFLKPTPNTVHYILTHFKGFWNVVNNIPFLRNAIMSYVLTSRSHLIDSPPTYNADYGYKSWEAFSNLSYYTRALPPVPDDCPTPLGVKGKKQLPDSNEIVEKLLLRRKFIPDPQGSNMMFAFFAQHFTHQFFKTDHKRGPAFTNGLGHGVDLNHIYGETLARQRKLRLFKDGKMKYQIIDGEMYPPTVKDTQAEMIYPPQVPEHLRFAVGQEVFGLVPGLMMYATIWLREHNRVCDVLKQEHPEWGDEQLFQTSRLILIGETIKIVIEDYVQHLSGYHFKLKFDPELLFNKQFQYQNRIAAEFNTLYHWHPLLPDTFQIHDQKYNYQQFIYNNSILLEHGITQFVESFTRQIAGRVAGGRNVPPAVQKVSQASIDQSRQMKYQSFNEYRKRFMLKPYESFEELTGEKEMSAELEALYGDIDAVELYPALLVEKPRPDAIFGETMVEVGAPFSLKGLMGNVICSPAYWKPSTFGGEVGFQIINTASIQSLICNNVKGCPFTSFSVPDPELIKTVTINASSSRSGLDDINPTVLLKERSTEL
Description: Inhibition of COX-2 (unknown origin) using arachidonic acid as substrate and in presence of TMPD preincubated for 5 mins followed by substrate addition and measured after 5 mins by UV visible spectrophotometric analysis

[5] = target: Acetylcholinesterase (Electrophorus electricus) (UniProt O42275); assay: Mixed-type inhibition of electric eel AChE using acetylthiocholine iodide as substrate assessed as decrease in Vmax […] at 0.036 to 0.144 uM preincubated for 15 mins by Lineweaver-burk plot analysis; details: dose 0.036-0.144 µM
[6] = Neurotoxicity against human SH-SY5Y cells assessed as reduction in cell viability at 100 uM incubated for 24 hrs by MTT assay relative to control; type: toxicity, cell-based
[7] = Neurotoxicity against human SH-SY5Y cells assessed as reduction in cell viability upto 50 uM incubated for 24 hrs by MTT assay; type: toxicity, cell-based
[8] = Acute toxicity in male Swiss albino mouse assessed as signs of discomfort at 1200 mg/kg BW, po administered as single dose via gavage measured after 20 mins by up-and-down method; type: organism-based; details: in vivo
[9] = Acute toxicity in male Swiss albino mouse assessed as ataxia at 450 mg/kg BW, po administered as single dose via gavage measured after 1 hrs by up-and-down method; type: organism-based; details: in vivo
[10] = Acute toxicity in male Swiss albino mouse assessed as survival time at 1500 mg/kg BW, po administered as single dose via gavage by up-and-down method; type: organism-based; details: in vivo
[11] = Acute toxicity in male Swiss albino mouse assessed as survival time at 900 mg/kg BW, po administered as single dose via gavage by up-and-down method; type: organism-based; details: in vivo
[12] = Acute toxicity in male Swiss albino mouse assessed as survival time at 650 mg/kg BW, po administered as single dose via gavage by up-and-down method; type: organism-based; details: in vivo
[13] = Acute toxicity in male Swiss albino mouse assessed as survival time at 250 mg/kg BW, po administered as single dose via gavage by up-and-down method; type: organism-based; details: in vivo
[14] = Acute toxicity in male Swiss albino mouse assessed as mortality rate at 650 mg/kg BW, po administered as single dose via gavage measured after 48 hrs by up-and-down method relative to control; type: organism-based; details: in vivo
[15] = Acute toxicity in male Swiss albino mouse assessed as mortality rate at 450 to 50 mg/kg BW, po administered as single dose via gavage measured after 48 hrs by up-and-down method relative to control; type: organism-based; details: in vivo, at 50 to 450 mg/kg, dose 450-50 mg/kg
Mus musculus [16] = assay: Antioxidant activity against scopolamine-induced Albino mouse assessed as decrease in MDA level in brain at 5 mg/kg measured after 24 hrs; type: functional
[17] = Lipophilicity, logP of compound; type: physicochemical; details: octanol/water
in vitro = details: PAMPA, pH 7.4
Description: Permeability of compound in PBS at pH 7.4 incubated for 20 hrs by PAMPA-BBB assay

Sequence of Acetylcholinesterase (Electrophorus electricus) (O42275 24-633 limits assumed): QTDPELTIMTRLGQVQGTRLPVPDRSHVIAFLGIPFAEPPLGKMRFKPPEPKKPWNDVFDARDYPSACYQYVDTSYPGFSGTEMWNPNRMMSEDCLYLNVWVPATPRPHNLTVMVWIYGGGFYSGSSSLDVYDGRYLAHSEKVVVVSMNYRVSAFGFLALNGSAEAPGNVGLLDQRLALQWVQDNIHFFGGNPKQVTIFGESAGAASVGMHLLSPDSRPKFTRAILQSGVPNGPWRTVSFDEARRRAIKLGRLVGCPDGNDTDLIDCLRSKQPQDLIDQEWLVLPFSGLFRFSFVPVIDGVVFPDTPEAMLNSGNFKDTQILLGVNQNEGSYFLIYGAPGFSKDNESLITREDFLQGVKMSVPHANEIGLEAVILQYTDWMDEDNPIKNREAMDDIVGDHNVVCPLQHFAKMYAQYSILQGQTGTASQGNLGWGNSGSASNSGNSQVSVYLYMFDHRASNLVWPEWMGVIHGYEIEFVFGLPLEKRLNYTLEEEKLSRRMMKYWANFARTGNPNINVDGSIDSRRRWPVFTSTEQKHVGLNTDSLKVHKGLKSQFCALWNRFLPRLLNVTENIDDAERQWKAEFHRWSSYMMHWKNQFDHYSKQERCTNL
Sequence of Acetylcholinesterase (O42275 whole entry): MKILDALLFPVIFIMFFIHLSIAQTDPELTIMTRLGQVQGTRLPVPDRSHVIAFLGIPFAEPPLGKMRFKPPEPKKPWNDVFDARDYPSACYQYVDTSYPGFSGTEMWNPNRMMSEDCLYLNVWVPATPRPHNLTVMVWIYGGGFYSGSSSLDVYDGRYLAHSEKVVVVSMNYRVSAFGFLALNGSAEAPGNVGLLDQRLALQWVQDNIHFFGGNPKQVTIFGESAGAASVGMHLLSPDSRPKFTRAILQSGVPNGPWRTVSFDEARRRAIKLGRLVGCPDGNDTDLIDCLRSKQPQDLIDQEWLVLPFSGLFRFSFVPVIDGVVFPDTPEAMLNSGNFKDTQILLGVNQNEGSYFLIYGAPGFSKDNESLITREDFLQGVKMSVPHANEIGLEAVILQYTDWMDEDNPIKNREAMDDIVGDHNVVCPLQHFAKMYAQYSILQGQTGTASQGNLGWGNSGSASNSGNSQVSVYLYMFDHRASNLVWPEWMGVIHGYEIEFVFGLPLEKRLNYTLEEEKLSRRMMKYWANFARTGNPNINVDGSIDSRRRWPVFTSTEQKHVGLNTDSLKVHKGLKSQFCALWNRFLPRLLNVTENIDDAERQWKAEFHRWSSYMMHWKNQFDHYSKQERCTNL

## COc1cc(/C=C/C(=O)Nc2ccc3sc(NCN4C(=O)CSC4=O)nc3c2)ccc1O
Mus musculus [1]
  Activity: 230 U/ml
[2]; po, 48 h
  LD100: 1500 mg/kg
[2]; male, Swiss albino
  LD50 at 48 h: 800 mg/kg
Acetylcholinesterase
  IC50: 0.072 µM
[3]
  IC50: 14.5 µM
[4]
  IC50: 0.187 µM
[5]
  inhibition: Active; Inhibition Of Free Enzyme And Enzyme-Substrate Complex.
[6]
  Activity: 76%
[7]
  Activity: Non-toxic
[8]
  Activity: Toxic
[9]
  Activity: Toxic
[10]
  Time: 15 min
[11]
  Time: 2 h
[12]
  Time: 18 h
[13]
  Time: > 48 h
[14]
  mortality at 48 h: 28.6%
[15]
  mortality at 48 h: 0%
Mus musculus [16]
  Activity: 1.95 nmol/mL
[17]
  logP: 3.34
In vitro
  Papp at 20 h: 57 nm/s
